In patent US20260226076A1, “FUSED MULTICYCLIC COMPOUNDS AND THEIR USE AS PARP1 INHIBITORS” (LAEKNA THERAPEUTICS SHANGHAI CO., LTD., priority 2022, published 2026):
Like-named read-outs stand apart in the source and are kept apart here.

Legend:
[1] = Tumor/plasma ratio study in MDA-MB-436 tumor-bearing mouse; assay type: in vivo; details: female NOD-SCID mice with MDA-MB-436 tumors, dosed 28 days; for concentration at 24 h: LC-MS/MS; for Kp at 24 h: tumor/plasma, 24 hours after the last dose
Description: 1×10^7 MDA-MB-436 cells were implanted subcutaneously onto the flank of female NOD-SCID mice (aged 6-8 weeks weighing approximately 18-22 g). When tumors reached approximately 150-180 mm3, the mice were randomly assigned to treatment groups. The mice were continuously dosed with the Compounds for 28 days. On day 29, blood (50 μL) and tumor tissue samples were collected at 24 hours after the last dose. The collected blood samples were then centrifuged at 4600 rpm for 5 minutes at 4° C. to obtain plasma. To determine compound levels in plasma samples, each plasma sample was prepared using an appropriate dilution factor and compared against an 11-point standard calibration curve (1-5,000 ng/mL) prepared in DMSO and spiked into blank plasma. Acetonitrile (200 μL) was added with internal standard into 20 μL plasma samples, followed by centrifugation at 5,500 rpm for 10 minutes. Supernatant (150 μL) was then diluted in water (150 μL) and analyzed via LC-MS/MS. Tumor tissue samples were weighed, and then homogenized with 80% methanol at a ratio of 1:5 or 1:10 (tumor weight in grams to methanol volume in milliliters). Acetonitrile (300 μL) was added with internal standard into 30 μL tumor homogenates sample. The samples were vortexed for 30 s and then centrifuged at 5,500 rpm for 10 min at 4° C. The supernatant (150 μL) was transferred to 96-well plate and diluted with water (150 μL) and analyzed via LC-MS/MS. If a sample concentration in initial assay was not covered in the range of a given standard curve, proper dilution and concentration procedures were used in repeated testing.

[2] = target: PARP1 (Homo sapiens, UniProt P09874); experiment: PARP1-DNA enzymatic trapping assay; assay type: biochemical; details: 10 nM PARP1, 5 nM DNA probe, 2 mM NAD+, fluorescence polarization read at 30 minutes
Description: Enzymatic trapping assay is to measure the dissociation process of PARP1 from fluorescein-labeled DNA during the enzymatic activity. Assay was conducted at a total 10 μL of reaction volume, including 10 nM PARP1 and 5 nM DNA probe in the binding buffer (50 mM Tris-HCl pH 8.0, 50 mM NaCl, 1 mM MgCl2, 0.1 mM EDTA, and 0.01% IGEPAL), and was commenced by adding a final concentration of 2 mM NAD+ substrate.
PARP1 Poly-ADP ribosylation (PARylation) inhibitory assay was conducted with compounds dissolved in DMSO at a starting concentration of 5 μM. Dissolved compounds were added to 384-well microplate and premixed with PARPI enzyme and DNA probe for 20 minutes incubation. Enzymatic reactions were started by adding NAD+ to mixture, and each well was read at 30 minutes by microplate reader (VICTOR Nivo®, PerkinElmer) to detect the fluorescence polarization signal at 480 nm excitation/530 nm dual emission.
All measured IC50 values were calculated using four parameters dose-response inhibition model in GraphPad Prism 8.0.2 (La Jolla, California, USA, www.graphpad.com).

[3] = target: PARP2 (Homo sapiens, UniProt Q9UGN5); experiment: PARP2-FL displacement assay; assay type: binding; details: 20 nM PARP2, 3 nM PARPi-FL, 4 hours incubation, fluorescence polarization
Description: A potent PARP inhibitor (PARPi-FL, Cat No. 6461, Tocris Bioscience) conjugated to BDY FL fluorophore was adopted to characterize the activity of PARP2 by measuring the displacement of binding of PARPi-FL to PARP2. Compounds to be tested were prepared at a concentration of 1-10 mM, and made a 3-fold serial dilution by 100% DMSO in a polypropylene plate (Bio-One small volume microplate, black, Cat No. 784076, Greiner). 100 nL of test compounds were dispensed into a 384-well polypropylene microplate and added 10 μL of reaction solution including premixed 20 nM PARP2 and 3 nM PARPi-FL. After 4 hours of incubation at room temperature, the fluorescence polarization signal at 480/30 nm excitation and 530/30 nm dual emission was measured by VICTOR Nivo® multimode plate reader (PerkinElmer). All of the measured IC50 values were calculated using four parameters dose-response inhibition model in GraphPad Prism 8.0.2 (La Jolla, California, USA, www.graphpad.com).

[4] = system: MDA-MB-436 cells; experiment: Cell proliferation assay (MDA-MB-436); assay type: cell-based; details: Homo sapiens, MDA-MB-436, 168 h, at least 7 days, Cell-Titer Glo, read-out: MDA-MB-436 anti-proliferation assay
Description: (§1) For PARPi sensitivity, exponentially growing MDA-MB-436 and DLD1 BRCA2^−/− cells were seed in 96 or 384-well plates at very low density with the goal of not splitting for at least 7 days (typically 0.3k-1.2k cells/well). Cells were plated on […] and treated with DMSO or increasing concentrations of PARP1 inhibitors on Day 0. At the end of the experiment, cell viability was estimated using Cell-Titer Glo (Promega).

[5] = system: DLD1 BRCA2−/− cells; experiment: Cell proliferation assay (DLD1 BRCA2−/−); assay type: cell-based; details: Homo sapiens, DLD-1, 168 h, at least 7 days, Cell-Titer Glo, read-out: DLD1 BRCA2−/− anti-proliferation assay
Description: as §1

[6] = tumor tissue 24 hours after the last dose, read-out: Tumor
[7] = plasma, sample 24 hours after the last dose, read-out: Plasma

PARP2, sequence (Q9UGN5 whole entry): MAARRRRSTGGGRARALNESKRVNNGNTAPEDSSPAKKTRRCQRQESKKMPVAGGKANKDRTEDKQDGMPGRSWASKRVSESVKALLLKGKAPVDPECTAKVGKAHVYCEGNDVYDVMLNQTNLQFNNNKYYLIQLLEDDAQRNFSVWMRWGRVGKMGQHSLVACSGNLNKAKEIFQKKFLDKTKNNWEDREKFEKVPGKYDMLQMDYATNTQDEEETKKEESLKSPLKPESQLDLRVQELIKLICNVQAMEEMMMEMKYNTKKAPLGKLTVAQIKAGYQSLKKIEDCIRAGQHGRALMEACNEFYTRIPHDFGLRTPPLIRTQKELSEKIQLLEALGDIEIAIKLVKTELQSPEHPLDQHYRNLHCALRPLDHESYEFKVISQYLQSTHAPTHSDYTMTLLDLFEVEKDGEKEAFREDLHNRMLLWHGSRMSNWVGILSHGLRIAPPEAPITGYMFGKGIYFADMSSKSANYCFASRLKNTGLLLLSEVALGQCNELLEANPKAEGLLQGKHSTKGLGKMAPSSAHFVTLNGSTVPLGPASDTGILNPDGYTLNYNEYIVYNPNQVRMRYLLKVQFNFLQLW
PARP1, sequence (P09874 whole entry): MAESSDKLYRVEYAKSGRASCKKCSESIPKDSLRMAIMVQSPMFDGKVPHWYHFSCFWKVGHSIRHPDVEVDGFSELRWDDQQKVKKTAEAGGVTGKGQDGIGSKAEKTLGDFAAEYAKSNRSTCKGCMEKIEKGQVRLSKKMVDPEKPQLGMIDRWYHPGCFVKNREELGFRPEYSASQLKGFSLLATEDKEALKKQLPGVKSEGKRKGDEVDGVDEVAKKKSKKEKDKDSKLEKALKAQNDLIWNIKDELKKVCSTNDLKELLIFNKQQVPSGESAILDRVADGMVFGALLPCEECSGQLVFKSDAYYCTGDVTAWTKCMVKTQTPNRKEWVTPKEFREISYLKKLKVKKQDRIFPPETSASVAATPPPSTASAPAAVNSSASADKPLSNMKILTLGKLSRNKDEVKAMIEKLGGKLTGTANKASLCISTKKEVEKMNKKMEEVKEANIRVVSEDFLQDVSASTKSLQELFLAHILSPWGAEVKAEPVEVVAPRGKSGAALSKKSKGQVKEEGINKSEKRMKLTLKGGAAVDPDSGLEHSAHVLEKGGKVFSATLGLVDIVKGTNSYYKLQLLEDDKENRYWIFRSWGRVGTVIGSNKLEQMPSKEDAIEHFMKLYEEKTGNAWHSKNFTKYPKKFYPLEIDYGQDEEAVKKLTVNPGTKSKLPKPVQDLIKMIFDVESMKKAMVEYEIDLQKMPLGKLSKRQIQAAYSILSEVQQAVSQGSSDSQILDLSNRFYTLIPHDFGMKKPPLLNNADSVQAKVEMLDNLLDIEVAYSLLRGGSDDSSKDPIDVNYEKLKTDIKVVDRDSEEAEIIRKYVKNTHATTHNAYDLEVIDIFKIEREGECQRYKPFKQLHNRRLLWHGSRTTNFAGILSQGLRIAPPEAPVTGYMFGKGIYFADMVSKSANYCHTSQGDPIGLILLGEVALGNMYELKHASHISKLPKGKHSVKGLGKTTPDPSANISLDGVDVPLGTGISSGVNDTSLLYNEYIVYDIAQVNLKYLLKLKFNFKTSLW

Structure (SMILES): CCc1cc2ncc(CN3CCN(c4ccc(C(=O)NC)nc4)CC3)cc2[nH]c1=O [AZD5305, reference compound]
- concentration at 24 h [1, 6]: 249 ng/g
- concentration at 24 h [1, 7]: 584 ng/mL
- Kp at 24 h [1]: 0.4

Structure (SMILES): O=C(NC1COC1)c1ccc(N2C[C@H]3CN(Cc4cnc5c6c(c(=O)[nH]c5c4)CCC6)C[C@@H]3C2)c(F)n1 [Compound 52]
- IC50 [2]: 7.41 nM
- IC50 [3]: 3310 nM
- IC50 [4]: 0.44 nM
- IC50 [5]: 1.44 nM
- concentration at 24 h [1, 6]: 121 ng/g
- concentration at 24 h [1, 7]: 4.3 ng/mL
- Kp at 24 h [1]: 28

Structure (SMILES): O=C(NC1COC1)c1ccc(N2C[C@H]3CN(Cc4ccc5c6c(c(=O)[nH]c5c4)COCC6)C[C@@H]3C2)c(F)n1 [Compound 69]
- IC50 [2]: 2.92 nM
- IC50 [3]: 676 nM
- IC50 [4]: 0.24 nM
- IC50 [5]: 0.81 nM

Structure (SMILES): CO[C@H]1C[C@@H](NC(=O)c2ccc(N3C[C@H]4CN(Cc5ccc6c7c(c(=O)[nH]c6c5)COCC7)C[C@@H]4C3)c(F)n2)C1 [Compound 70]
- IC50 [2]: 4.2 nM
- IC50 [3]: 614 nM
- IC50 [4]: 0.39 nM
- IC50 [5]: 0.7 nM

Structure (SMILES): CNC(=O)c1ccc(N2C[C@H]3CN(Cc4cnc5c6c(c(=O)[nH]c5c4)COCC6)C[C@@H]3C2)c(F)n1 [Compound 71]
- IC50 [2]: 5.05 nM
- IC50 [3]: 500 nM
- IC50 [4]: 0.18 nM
- IC50 [5]: 0.44 nM

Structure (SMILES): CO[C@H]1C[C@@H](NC(=O)c2ccc(N3C[C@H]4CN(Cc5cnc6c7c(c(=O)[nH]c6c5)COCC7)C[C@@H]4C3)c(F)n2)C1 [Compound 73]
- IC50 [2]: 8.29 nM
- IC50 [3]: 1040 nM
- IC50 [4]: 0.27 nM
- IC50 [5]: 1.09 nM
- concentration at 24 h [1, 6]: 206 ng/g
- concentration at 24 h [1, 7]: 3.2 ng/mL
- Kp at 24 h [1]: 64

Structure (SMILES): CCNC(=O)c1ccc(N2C[C@H]3CN(Cc4cnc5c6c(c(=O)[nH]c5c4)COCC6)C[C@@H]3C2)c(F)n1 [Compound 76]
- IC50 [2]: 5.3 nM
- IC50 [3]: 574 nM
- IC50 [4]: 0.5 nM
- IC50 [5]: 0.7 nM

Structure (SMILES): CNC(=O)c1ccc(N2C[C@H]3CN(Cc4cc5[nH]c(=O)c6c(c5cn4)CCOC6)C[C@@H]3C2)c(F)n1 [Compound 77]
- IC50 [2]: 7.73 nM
- IC50 [3]: 1630 nM
- IC50 [4]: 0.41 nM
- IC50 [5]: 2.7 nM

Structure (SMILES): CNC(=O)c1ccc(N2C[C@H]3CN(Cc4cc5[nH]c(=O)c6c(c5cn4)COCC6)C[C@@H]3C2)c(F)n1 [Compound 80]
- IC50 [2]: 5.05 nM
- IC50 [3]: 3880 nM
- IC50 [4]: 0.84 nM
- IC50 [5]: 4.75 nM

Structure (SMILES): CNC(=O)c1ccc(N2C[C@H]3CN(Cc4cnc5c6c(c(=O)[nH]c5c4)CCCC6)C[C@@H]3C2)c(F)n1 [Compound 82]
- IC50 [2]: 13.1 nM
- IC50 [3]: 185 nM
- IC50 [4]: 1.38 nM
- IC50 [5]: 0.55 nM

Structure (SMILES): O=C(NC1COC1)c1ccc(N2C[C@H]3CN(Cc4cnc5c6c(c(=O)[nH]c5c4)CCCC6)C[C@@H]3C2)c(F)n1 [Compound 83]
- IC50 [2]: 7.66 nM
- IC50 [3]: 147 nM
- IC50 [4]: 0.54 nM
- IC50 [5]: 0.54 nM

Structure (SMILES): O=C(N[C@H]1CCOC1)c1ccc(N2C[C@H]3CN(Cc4ccc5c6c(c(=O)[nH]c5c4)COCC6)C[C@@H]3C2)c(F)n1 [Compound 85]
- IC50 [2]: 8.15 nM
- IC50 [3]: 811 nM
- IC50 [4]: 1.05 nM
- IC50 [5]: 1.1 nM

Structure (SMILES): O=C(N[C@@H]1CCOC1)c1ccc(N2C[C@H]3CN(Cc4ccc5c6c(c(=O)[nH]c5c4)COCC6)C[C@@H]3C2)c(F)n1 [Compound 86]
- IC50 [2]: 11.7 nM
- IC50 [3]: 2370 nM
- IC50 [4]: 2.25 nM
- IC50 [5]: 1.37 nM

Structure (SMILES): O=C(NC1COC1)c1ccc(N2C[C@H]3CN(Cc4ccc5c6c(c(=O)[nH]c5c4)CCC6)C[C@@H]3C2)c(F)n1 [Compound 87]
- IC50 [2]: 5.73 nM
- IC50 [3]: 1200 nM
- IC50 [4]: 0.66 nM
- IC50 [5]: 0.62 nM
- concentration at 24 h [1, 6]: 244 ng/g
- concentration at 24 h [1, 7]: 22 ng/mL
- Kp at 24 h [1]: 11
